ChEMBL document CHEMBL1201862, “PubChem BioAssay data set” (2004)
Calls of active or inactive are those of the source.

Key:
H9c2 = assay: cells; format: functional, cell-based; conditions: Rattus norvegicus, H9c2, Myocardium;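 note: confirmatory concentration-response retest of ultra-high-throughput screening hits for modulation of myocardial damage; cell death induced by hydrogen peroxide oxidative stress; compound pretreatment for 60 min then peroxide exposure for 2 h; potency is for protecting the cells against peroxide damage rather than for killing them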
Large T antigen = Large T antigen (Simian virus 40, UniProt P03070); format: functional, Betapolyomavirus macacae;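 note: Confirmatory-stage PubChem screen for compounds that inhibit SV40 T antigen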
Large T antigen, sequence (P03070 whole entry): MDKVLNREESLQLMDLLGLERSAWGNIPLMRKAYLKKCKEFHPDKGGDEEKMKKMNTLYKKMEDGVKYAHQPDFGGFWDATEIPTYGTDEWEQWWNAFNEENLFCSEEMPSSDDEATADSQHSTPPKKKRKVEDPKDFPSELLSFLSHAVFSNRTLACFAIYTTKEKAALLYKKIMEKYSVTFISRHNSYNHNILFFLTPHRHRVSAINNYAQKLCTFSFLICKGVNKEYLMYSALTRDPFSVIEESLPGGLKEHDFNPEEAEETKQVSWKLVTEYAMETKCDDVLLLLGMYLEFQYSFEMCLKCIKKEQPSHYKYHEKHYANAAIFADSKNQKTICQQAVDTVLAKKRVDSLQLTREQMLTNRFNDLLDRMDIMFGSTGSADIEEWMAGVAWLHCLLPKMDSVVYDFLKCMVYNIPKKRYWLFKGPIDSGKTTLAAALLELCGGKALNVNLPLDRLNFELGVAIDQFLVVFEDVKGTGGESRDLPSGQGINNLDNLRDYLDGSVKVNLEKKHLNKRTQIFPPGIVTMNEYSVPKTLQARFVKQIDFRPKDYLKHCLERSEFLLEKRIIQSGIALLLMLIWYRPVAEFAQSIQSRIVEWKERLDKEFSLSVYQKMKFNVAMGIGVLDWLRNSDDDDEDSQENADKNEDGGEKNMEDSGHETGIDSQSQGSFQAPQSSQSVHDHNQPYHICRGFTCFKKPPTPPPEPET

[1] = target: FAD-linked sulfhydryl oxidase ALR (Homo sapiens, UniProt P55789); assay: ALR-catalysed DTT oxidation blockers – biochemical, H2O2 detection, luminescence, cherry-pick, dose response (AID 493248)
FAD-linked sulfhydryl oxidase ALR, sequence (P55789 whole entry): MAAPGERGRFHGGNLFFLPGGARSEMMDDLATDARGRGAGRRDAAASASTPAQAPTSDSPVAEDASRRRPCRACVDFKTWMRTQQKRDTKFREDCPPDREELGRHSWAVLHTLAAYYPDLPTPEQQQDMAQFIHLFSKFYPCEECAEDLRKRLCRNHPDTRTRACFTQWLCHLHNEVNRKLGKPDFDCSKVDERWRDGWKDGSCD

[2] = viability of HCT116 lacking mutant beta-catenin – cell-based, human colon tumor, dose response (AID 1045); format: functional;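 note: HCT116 colon tumor cells with beta catenin knocked out; cells exposed to compound for 60 hours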
[3] = target: T1, Heat shock factor protein 1 (Mus musculus, UniProt P38532); assay: enhancement of HSF1-driven luciferase signal – cell-based, NIH3T3, luminescence, dose retest, confirmation (AID 435004); format: functional;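 note: stress induced by proteasome inhibitor MG132 added 30 min after compound; luciferase reporter driven by HSF1 response element in NIH3T3 cells; actives raise luminescence as potentiators of the MG132 stress response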
T1 sequence (P38532 whole entry): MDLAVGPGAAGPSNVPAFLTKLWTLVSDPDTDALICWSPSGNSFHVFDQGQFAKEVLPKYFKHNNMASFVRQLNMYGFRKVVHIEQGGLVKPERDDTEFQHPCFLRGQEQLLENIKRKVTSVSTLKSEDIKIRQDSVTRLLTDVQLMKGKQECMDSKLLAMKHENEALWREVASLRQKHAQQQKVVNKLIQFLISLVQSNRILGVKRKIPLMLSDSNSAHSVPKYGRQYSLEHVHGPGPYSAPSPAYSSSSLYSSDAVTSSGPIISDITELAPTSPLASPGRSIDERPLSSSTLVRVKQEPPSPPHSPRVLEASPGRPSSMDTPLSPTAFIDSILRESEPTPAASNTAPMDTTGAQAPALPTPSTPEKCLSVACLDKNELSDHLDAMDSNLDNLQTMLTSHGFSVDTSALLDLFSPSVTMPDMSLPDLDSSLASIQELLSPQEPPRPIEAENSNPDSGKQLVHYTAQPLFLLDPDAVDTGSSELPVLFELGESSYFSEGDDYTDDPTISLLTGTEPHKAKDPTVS

[4] = viability of PTEN-deleted HCT116 cells – cell-based, HCT116 PTEN knockout, dose response (AID 1047); format: functional;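 note: HCT116 colon tumor cells with PTEN knocked out; cells exposed to compound for 60 hours before readout; potency for loss of cell viability measured by luminescence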
INS1 = assay: INS-1E survival protection against cytokine death – cell-based, luminescence, retest, dose response (AID 449756); format: functional; conditions: Rattus norvegicus;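 note: cell death triggered by IL-1 beta plus TNF-alpha plus IFN-gamma mixture; protective hits raise ATP signal compared with cytokine alone wells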
Protein RecA = target: T2, Protein RecA (Mycobacterium tuberculosis, UniProt P9WHJ3); assay: Fluorescence Cell-Free Homogeneous Dose Retest to Identify Inhibitors of RecA-Intein Splicing Activity. [Related pubchem assays (depositor defined):AID2097, AID2223, AID489010, AID492950]; format: functional
T2 sequence (P9WHJ3 whole entry): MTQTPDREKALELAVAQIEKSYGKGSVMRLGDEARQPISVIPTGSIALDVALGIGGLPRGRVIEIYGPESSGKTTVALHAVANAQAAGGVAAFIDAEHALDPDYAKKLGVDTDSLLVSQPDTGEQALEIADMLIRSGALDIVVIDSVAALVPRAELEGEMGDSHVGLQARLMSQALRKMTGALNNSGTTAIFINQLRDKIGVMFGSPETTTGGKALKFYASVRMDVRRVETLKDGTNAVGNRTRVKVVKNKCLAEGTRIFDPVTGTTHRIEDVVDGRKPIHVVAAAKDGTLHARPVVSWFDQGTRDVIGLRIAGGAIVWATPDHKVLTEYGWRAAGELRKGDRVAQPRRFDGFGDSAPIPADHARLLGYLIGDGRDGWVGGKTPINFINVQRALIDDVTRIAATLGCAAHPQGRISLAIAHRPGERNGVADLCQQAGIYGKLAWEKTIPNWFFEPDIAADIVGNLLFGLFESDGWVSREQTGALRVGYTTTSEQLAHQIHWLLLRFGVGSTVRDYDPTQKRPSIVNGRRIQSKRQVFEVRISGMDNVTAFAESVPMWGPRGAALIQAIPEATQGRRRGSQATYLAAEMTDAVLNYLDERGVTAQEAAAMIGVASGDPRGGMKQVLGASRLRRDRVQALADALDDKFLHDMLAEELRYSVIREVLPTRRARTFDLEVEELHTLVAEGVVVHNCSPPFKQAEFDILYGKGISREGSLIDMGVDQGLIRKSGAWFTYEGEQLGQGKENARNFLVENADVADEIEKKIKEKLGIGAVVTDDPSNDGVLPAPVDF

[5] = target: T3, Replicative DNA helicase DnaB (Mycobacterium tuberculosis, UniProt P9WMR3); assay: DnaB intein splicing inhibitors, dose response, biochemical, cell-free fluorescence (AID 449749); format: functional
T3 sequence (P9WMR3 whole entry): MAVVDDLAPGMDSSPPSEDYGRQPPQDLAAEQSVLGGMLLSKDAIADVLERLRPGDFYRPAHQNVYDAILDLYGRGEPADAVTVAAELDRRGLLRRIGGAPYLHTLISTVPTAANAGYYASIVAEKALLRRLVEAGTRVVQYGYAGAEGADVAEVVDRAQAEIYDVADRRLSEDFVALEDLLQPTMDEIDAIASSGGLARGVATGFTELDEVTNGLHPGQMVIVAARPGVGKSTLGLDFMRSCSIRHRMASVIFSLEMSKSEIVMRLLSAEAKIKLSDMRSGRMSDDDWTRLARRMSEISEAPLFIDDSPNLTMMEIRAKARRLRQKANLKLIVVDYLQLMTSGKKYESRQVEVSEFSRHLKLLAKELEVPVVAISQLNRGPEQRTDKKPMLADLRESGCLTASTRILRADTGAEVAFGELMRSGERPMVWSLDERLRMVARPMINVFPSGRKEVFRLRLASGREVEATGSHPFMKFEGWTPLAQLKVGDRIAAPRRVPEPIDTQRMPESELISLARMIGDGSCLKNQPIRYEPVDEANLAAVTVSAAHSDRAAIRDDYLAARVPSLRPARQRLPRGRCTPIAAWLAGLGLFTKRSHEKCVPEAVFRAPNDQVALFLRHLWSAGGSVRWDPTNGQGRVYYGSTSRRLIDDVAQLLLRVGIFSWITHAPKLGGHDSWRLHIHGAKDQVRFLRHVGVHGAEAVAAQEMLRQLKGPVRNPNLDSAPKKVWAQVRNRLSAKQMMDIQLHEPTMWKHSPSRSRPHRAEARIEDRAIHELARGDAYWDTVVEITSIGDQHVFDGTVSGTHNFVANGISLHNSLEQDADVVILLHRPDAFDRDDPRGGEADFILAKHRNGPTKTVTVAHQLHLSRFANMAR

[6] = target: Induced myeloid leukemia cell differentiation protein Mcl-1 (Homo sapiens, UniProt Q07820); format: functional
Induced myeloid leukemia cell differentiation protein Mcl-1, sequence (Q07820 whole entry): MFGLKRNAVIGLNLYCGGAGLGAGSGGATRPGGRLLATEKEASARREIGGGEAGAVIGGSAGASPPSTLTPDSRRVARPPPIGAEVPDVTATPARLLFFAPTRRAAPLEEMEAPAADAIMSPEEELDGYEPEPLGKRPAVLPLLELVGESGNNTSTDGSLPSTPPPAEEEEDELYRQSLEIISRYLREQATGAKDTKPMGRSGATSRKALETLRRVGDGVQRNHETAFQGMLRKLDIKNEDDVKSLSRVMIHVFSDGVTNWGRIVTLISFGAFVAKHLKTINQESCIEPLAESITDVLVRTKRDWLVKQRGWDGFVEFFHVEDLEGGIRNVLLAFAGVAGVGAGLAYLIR

[7] = Luminescence Cell-Based Dose Retest to Confirm Inhibitors of Cancer Stem Cells. [Related pubchem assays (depositor defined):AID2717, AID2721]; format: functional; conditions: Homo sapiens
[8] = viability of uninfected HEp-2 cells – cell-based, HTS, cytotoxicity control for RSV inhibitor project, dose response (AID 2410); format: functional; conditions: human respiratory syncytial virus
[9] = target: T1, Heat shock factor protein 1; assay: decrease of HSF1-responsive luciferase luminescence – cell-based, NIH3T3, dose retest, confirmation (AID 2382); format: functional;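 note: NIH3T3 fibroblasts with HSF1-driven luciferase reporter stressed by proteasome inhibitor MG132; luminescence from HSF1-driven luciferase expression after 8 hours of MG132 stress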
Streptococcus = assay: GAS UMAA2166 growth inhibition – luminescence, BacTiterGlo, counter-screen for streptokinase expression inhibitor project, dose response (AID 1915); format: functional, organism-based;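 note: potency for reduction of bacterial viability or growth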
[10] = system: Streptococcus sp. 'group A'; assay: Streptococcus pyogenes SK(-)GAS viability under kanamycin – luminescence, BacTiterGlo, confirmation, counter-screen for streptokinase expression inhibitor project, dose response (AID 1900); format: functional, organism-based
[11] = luciferase reporter signal suppression in cells – H4 neuroglioma cells, luminescence, dose response (AID 1990); format: functional, cell-based
[12] = alpha-synuclein stem-loop luciferase translation blockers – H4 neuroglioma cells, luminescence, confirmation (AID 1988); format: functional, cell-based
[13] = Luminescence Cell-Based Dose Response HTS to Identify Inhibitors of 5'UTR Stem-Loop Driven Prion Protein mRNA Translation in H4 Neuroglioblastoma Cells. [Related pubchem assays: 1827 (Project Summary), 1813 (Primary HTS)]; format: functional
cells = format: functional
Cytochrome P450 2D6 = Cytochrome P450 2D6 (Homo sapiens, UniProt P10635);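 note: CYP2D6 member of a cytochrome P450 panel assay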
Cytochrome P450 2D6, sequence (P10635 whole entry): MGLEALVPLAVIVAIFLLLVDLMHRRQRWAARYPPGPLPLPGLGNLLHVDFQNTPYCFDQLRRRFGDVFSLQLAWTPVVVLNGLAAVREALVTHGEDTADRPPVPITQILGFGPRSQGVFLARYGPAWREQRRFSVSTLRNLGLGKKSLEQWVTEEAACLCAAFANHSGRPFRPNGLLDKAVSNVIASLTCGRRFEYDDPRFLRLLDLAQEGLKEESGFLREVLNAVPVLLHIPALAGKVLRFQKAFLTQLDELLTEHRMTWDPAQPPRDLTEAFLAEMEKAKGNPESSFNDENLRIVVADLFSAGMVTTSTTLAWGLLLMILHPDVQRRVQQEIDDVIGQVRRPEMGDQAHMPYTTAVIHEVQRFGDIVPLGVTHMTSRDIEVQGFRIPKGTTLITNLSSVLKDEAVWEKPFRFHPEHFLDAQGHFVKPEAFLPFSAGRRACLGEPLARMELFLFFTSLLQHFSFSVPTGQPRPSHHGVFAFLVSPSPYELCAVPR

O=C(Oc1ccc(N(Cc2cccs2)C2=NS(=O)(=O)c3ccccc32)cc1)c1ccccc1Cl
IC50 (H9c2): 23.2 µM (active)

NNC(=O)c1cc(-c2ccccc2)sc1N
IC50 (Large T antigen): 17.2 µM (active)
AC50 [1]: 8.45 µM (active)

CCn1c2ccccc2c2cc(NC(=O)CSc3nnc(-c4cccc(OC)c4)n3N)ccc21
EC50 [2]: 31.5 µM (active)
EC50 [3]: 33.9 µM (active)
EC50 [4]: 32.1 µM (active)

O=C(Nc1ccc(Cl)c(Cl)c1)N1CCSC1c1ccco1 (stereo not drawn)
AC50 (INS1): 11.8 µM (active)

CCN(CC)c1ccc(C2C(C(=O)OC(C)C)C(=O)CC(C)(O)C2C(=O)OC(C)C)cc1 (stereo not drawn)
IC50 (H9c2): > 79 µM (inactive)

CC(C)c1n[nH]c2c1C(c1cccnc1)C(C#N)=C(N)O2 (stereo not drawn)
EC50 (Protein RecA): 1.81 µM (inconclusive)
AC50 [5]: 1.78 µM (active)

CCCc1n[nH]c(O)c1C(c1ccc(Br)cc1)C(C#N)C#N (stereo not drawn)
EC50 (Protein RecA): 4.06 µM (active)
AC50 [1]: 2.24 µM (active)
AC50 [5]: 5.5 µM (active)

CCn1c(SCC(=O)Nc2ccc(OC)cc2)nc2nc3c(cc2c1=O)CCCC3
AC50 (INS1): 38.7 µM (active)

CN(C)c1ccc(C(CNC(=O)c2ccc(F)cc2)c2c[nH]c3ccccc23)cc1 (stereo not drawn)
IC50 [6]: 3.08 µM (not active)

CN(C)c1ccc(NC(=O)c2ccc3[nH]cnc3c2)cc1
IC50 (Large T antigen): 6.99 µM (active)

O=C(O)CCC(=O)Nc1ccc(SSc2ccc(NC(=O)CCC(=O)O)cc2)cc1
IC50 (Large T antigen): 5.39 µM (active)

C=C(C)COc1ccc(-c2nc(N)ncc2-c2ccc(Br)cc2)c(O)c1
AC50 [7]: 5.37 µM (active)
CC50 [8]: 15.7 µM (active)

c1ccc(CN2CCC(Nc3nc(-c4cccs4)nc4ccccc34)CC2)cc1
AC50 [7]: 4.2 µM (active)

N#Cc1c(-c2ccco2)cc(-c2cccnc2)nc1N
IC50 (H9c2): > 79 µM (inactive)

CCOc1ccc(N=Nc2c(N)n[nH]c2O)cc1
EC50 [9]: > 195 µM (not active)
EC50 (Protein RecA): 3.85 µM (active)
AC50 [5]: 15.3 µM (active)

CSc1nc(=S)n(-c2ccc([N+](=O)[O-])cc2)c(C)c1C(C)=O
EC50 (Protein RecA): 12.1 µM (active)
AC50 [5]: 40.3 µM (active)

O=C(Nc1ccc(O)cc1)/C(=C\c1cccs1)NC(=O)c1ccccc1
IC50 (Large T antigen): 23 µM (active)

Cc1ccccc1NP(=O)(Oc1ccccc1F)Oc1ccccc1F
IC50 (H9c2): > 79 µM (inactive)

C=C(C)CN=C(S)NNC(=O)CCn1c2ccc(Cl)cc2c2cc(Cl)ccc21
AC50 [7]: 1.44 µM (active)
EC50 (Streptococcus): 8.01 µM (active)
EC50 [10]: 2.84 µM (active)
EC50 [11]: > 120 µM (not active)
EC50 [12]: > 120 µM (not active)
EC50 [13]: > 120 µM (not active)

C=CCNC(S)=NNC(=O)c1cc(O)ccc1O
IC50 (Large T antigen): > 100 µM (active)

COC(=O)C1CCN(C(=O)c2cc(-c3ccc(Cl)s3)nc3ccccc23)CC1
AC50 (INS1): 3.98 µM (active)

Cc1ccc(C(C[N+](=O)[O-])n2nc(C)cc2C)cc1 (stereo not drawn)
AC50 [7]: 13 µM (active)

CC(C)Oc1cccc(C(=O)NC(=S)Nc2ccccc2N2CCOCC2)c1
AC50 [7]: 4.53 µM (active)

COc1ccc(-c2ccc3c(n2)sc2c(=O)[nH]c(=O)[nH]c23)cc1OC
IC50 [6]: 1.76 µM (active)

CNc1nc2cc([N+](=O)[O-])c([N+](=O)[O-])cc2nc1NC
AC50 (INS1): 0.32 µM (active)

O=C(COC(=O)CCc1c[nH]c2ccccc12)NCc1ccc2c(c1)OCO2
IC50 (cells): 11.3 µM (active)

COc1cc(-c2cc(C(=O)OCC(=O)NC3CC3)c3ccccc3n2)cc(OC)c1OC
IC50 (H9c2): > 79 µM (inactive)

COc1ccccc1NC(=O)c1cc(-c2ccc(OC)c(OC)c2)nc2ccccc12
IC50 (H9c2): > 79 µM (inactive)

Cc1ccccc1NC(=O)COc1cccc2c1CCNC2=O
IC50 (H9c2): 13.9 µM (active)

O=C(Cn1[nH]c(=O)c2ccccc2c1=O)NC1CCN(Cc2ccccc2)CC1
IC50 (H9c2): > 79 µM (inactive)

COc1ccc(/C=N/NC(=O)c2cc[nH]n2)cc1COc1ccc(Cl)cc1
IC50 (H9c2): > 79 µM (inactive)
AC50 (Cytochrome P450 2D6): 25.1 µM (inconclusive)

O=C(O)CCc1nc(-c2cccs2)no1
IC50 [6]: 17.6 µM (not active)

Cc1ccc(Sc2c(C)[nH]n(C(C)(C)C)c2=O)cc1
EC50 (Protein RecA): 1.47 µM (active)
AC50 [5]: 30 µM (active)

Cc1ccc2[nH]c3nc(N/N=C/c4cccc(O)c4)nnc3c2c1
AC50 [7]: < 0.16 µM (active)

COc1cc(NC(=O)C/C(C)=N/NC(=O)c2cccs2)c(OC)cc1Cl
IC50 (cells): 2.79 µM (active)

COCCn1/c(=N/C(=O)c2nc3ccccc3s2)sc2cc(S(C)(=O)=O)ccc21
IC50 (H9c2): > 79 µM (inactive)
